Data published in publication PMC9656702, “Unveiling a New Selenocyanate as a Multitarget Candidate with Anticancer, Antileishmanial and Antibacterial Potential” (Molecules, 2022).
Converted amounts (≈) assume the structure as drawn. Read-outs that look alike come from different tables or passages of the source.

Tests used:
[1] = system: K. pneumoniae; assay: MIC and MBC assay, K. pneumoniae; format: cell-based, Klebsiella pneumoniae; details: for MIC / MBC: Klebsiella pneumoniae; for MIC: read-out: MIC K. pneumoniae; for MBC: read-out: MBC K. pneumoniae
Protocol: (§1) The minimum inhibitory concentration (MIC) and the minimum bactericidal concentration (MBC) values of the selenocompounds were determined in a panel of six bacterial strains as a first approach to assess their antibacterial activity. Thus, the synthesized derivatives were tested against the Gram-negative bacteria Escherichia coli (E. coli), Klebsiella pneumoniae (K. pneumoniae) and Citrobacter freundii (C. freundii); and the Gram-positive bacteria Staphylococcus aureus (S. aureus), Streptococcus faecalis (S. faecalis), and Staphylococcus epidermidis (S. epidermidis). […]
(§2) All the selenocompounds were screened for their in vitro inhibitory activity against three Gram-negative (E. coli, K. pneumoniae and C. freundii) and three Gram-positive (S. aureus, S. faecalis and S. epidermidis) bacteria. Bacterial strains were kindly provided by the Department of Microbiology and Parasitology of the University of Navarra. The bacterial cells were grown in tryptic soy agar (TSA) plates and maintained at 4 °C.
(§3) The compounds were firstly dissolved in DMSO and serially diluted in a 96-well plate in tryptic soy broth (TSB) with eleven concentrations ranging from 400 µg/mL to 0.4 µg/mL with a final volume of 100 µL. Subsequently, 100 µL of a diluted suspension of bacterial cells with an optical density of 0.125 measured at 600 nm in TSB (inoculum of approximately 10^5 CFU/mL) was added to each well and incubated at 37 °C for 24 h. After the incubation period, each well was analyzed for the presence or absence of visual growth of bacterial cells. The lowest concentration of the test compound at which no visible growth occurred was determined as the MIC values. After incubation, 10 µL of the bacterial suspension from each well that presented antibacterial activity was added to divided TSA plates and incubated at 37 °C overnight.

[2] = system: HT-29; assay: Antiproliferative MTT assay, HT-29 colon cancer cells; format: cell-based, human
Protocol: (§4) The antiproliferative activities of the cinnamyl and benzodioxyl derivatives were assessed against six human cell lines of three different types of cancer (colon, lung, and breast) using the 3-(4,5-dimethylthiazol-2-yl)-2,5-diphenyltetrazolium bromide (MTT) assay at seven concentrations for 48 h. The results are expressed as the IC50 values and are outlined in Table 1.
(§5) The cell lines were obtained from the American Type Culture Collection (ATCC). All the cancer cell lines (HT-29, HCT-116, H1299, HTB-54, MDA-MB-231 and MCF-7) and the nontumorigenic cells (184B5) were maintained in RPMI 1640 medium (Gibco), supplemented with 10% fetal bovine serum (FBS; Gibco) and 1% antibiotics (10.00 units/mL penicillin and 10.00 mg/mL streptomycin; Gibco). Cells were preserved in tissue culture flasks at 37 °C and 5% CO2. Culture medium was replaced every three days.
(§6) The cytotoxic effect of each compound was initially tested at seven different concentrations ranging between 0.5 and 100 µM in the cell lines mentioned above. The cells were seeded (1 × 10^4 cells per well) in 96-well plates and incubated at 37 °C and 5% CO2 for 24 h. After attachment, cells were treated with either dimethyl sulfoxide (DMSO) or increasing concentrations of the corresponding selenocompound for 48 h. The effect of the compounds on cell viability was determined by the MTT assay. In brief, 20 µL of MTT (5 mg/mL) was added to each well 2.5 h prior to experiment termination. At the end of the incubation, the medium was removed, and the formazan crystals were dissolved in 50 µL of DMSO. Absorbance was measured at 550 nm on a microplate reader. IC50 values were calculated using OriginPro 8.5.1. software by nonlinear curve fitting. Selectivity indexes were calculated as the ratio of the IC50 values determined for the nonmalignant and the tumoral cells in the breast cell lines (IC50 (184B5)/IC50 (MDA-MB-231) and IC50 (184B5)/IC50 (MCF-7)). Data were obtained from at least three independent experiments performed in triplicates.

[3] = system: H1299; assay: Antiproliferative MTT assay, H1299 lung cancer cells; format: cell-based, human
Protocol: as §4, §5, §6

[4] = system: S. faecalis; assay: MIC and MBC assay, S. faecalis; format: cell-based, Streptococcus faecalis; details: for MIC / MBC: Enterococcus faecalis; for MIC: read-out: MIC S. faecalis; for MBC: read-out: MBC S. faecalis
Protocol: as §1, §2, §3

[5] = system: C. freundii; assay: MIC and MBC assay, C. freundii; format: cell-based, Citrobacter freundii; details: for MIC / MBC: Citrobacter freundii; for MIC: read-out: MIC C. freundii; for MBC: read-out: MBC C. freundii
Protocol: as §1, §2, §3

[6] = system: S. epidermidis; assay: MIC and MBC assay, S. epidermidis; format: cell-based, Staphylococcus epidermidis; details: for MIC / MBC: Staphylococcus epidermidis; for MIC: read-out: MIC S. epidermidis; for MBC: read-out: MBC S. epidermidis
Protocol: as §1, §2, §3

[7] = system: MCF-7; assay: Antiproliferative MTT assay, MCF-7 breast cancer cells; format: cell-based, human
Protocol: as §4, §5, §6

[8] = system: Leishmania infantum promastigotes; assay: Parasite viability MTT assay, L. infantum promastigotes; format: cell-based; details: 48 h
Protocol: The cytotoxic activities of all the derivatives against Leishmania major and Leishmania infantum promastigotes were studied by the MTT assay after exposing the parasites to five different concentrations of each compound for 48 h. Miltefosine and paromomycin, two currently available drugs for the treatment of leishmaniasis, were used as positive controls.
L. major (clone VI, MHOM/IL/80/Friendlin) and L. infantum (BCN-150) promastigotes were grown in continuous stirred M199 1X medium (Sigma, St Louis, MO, USA) at 26 °C supplemented with 25 mM HEPES (pH 7.2), 10% heat-inactivated FBS (Gibco, Gaithersburg, MD, USA), 0.1 mM adenine, 0.0005% (w/v) hemin, 0.0001% (w/v) biotin, 100 UI/mL penicillin and […] streptomycin (Gibco, Gaithersburg, MD, USA). Media were changed before each experiment to achieve exponential growth.
The antileishmanial activity was assessed by the MTT assay as previously described. Briefly, 3 × 10^6 promastigotes of both Leishmania strains were placed into a 96-well plate with supplemented M199 1X medium during their logarithmic growth phase. The parasites were treated with five increasing concentrations of the compounds ranging between 0.1 and 1000 µM at 26 °C for 48 h. At the termination point, 20 µL of MTT (5 mg/mL) was added and further incubated for 4 h. The resultant formazan crystals formed were dissolved in 80 µL of DMSO and the absorbance was measured at 550 nm on a microplate reader. IC50 values were calculated using OriginPro 8.5.1. software by nonlinear curve fitting. Miltefosine and paromomycin were used as reference drugs. Data were obtained from at least three independent experiments performed in triplicates.

[9] = system: HTB-54; assay: Antiproliferative MTT assay, HTB-54 lung cancer cells; format: cell-based, human
Protocol: as §4, §5, §6

[10] = Homo sapiens, HT-29, 48 h, MTT assay, 48 h, mean ± SD, read-out: IC50 HT-29
[11] = MTT assay, 48 h, mean ± SD, read-out: IC50 HT-29
[12] = Homo sapiens, NCI-H1299, 48 h, MTT assay, 48 h, mean ± SD, read-out: IC50 H1299
[13] = MTT assay, 48 h, mean ± SD, read-out: IC50 H1299
[14] = Homo sapiens, MCF7, MTT assay, 48 h, mean ± SD, read-out: IC50 MCF-7
[15] = Leishmania infantum, promastigotes, MTT assay, mean ± SD, read-out: IC50 Leishmania infantum
[16] = Homo sapiens, HTB-54, MTT assay, 48 h, mean ± SD, read-out: IC50 HTB-54
[17] = MTT assay, 48 h, mean ± SD, read-out: IC50 MCF-7
[18] = promastigotes, MTT assay, mean ± SD, read-out: IC50 Leishmania infantum
[19] = MTT assay, 48 h, mean ± SD, read-out: IC50 HTB-54

Structure (SMILES)	MBC S. faecalis ([4]; Gram-positive)	MIC ([1]; Gram-negative, 24 h at 37 °C) [mg/L]	IC50 [2, 10] [µM]	IC50 [2, 11] [µM]	IC50 [3, 12] [µM]	IC50 [3, 13] [µM]	MIC ([4]; Gram-positive, 24 h at 37 °C) [mg/L]	MIC ([5]; Gram-negative, 24 h at 37 °C) [mg/L]	MIC ([6]; Gram-positive, 24 h at 37 °C) [mg/L]	IC50 [7, 14] [µM]	IC50 [8, 15] [µM]	IC50 [9, 16] [µM]	MIC K. pneumoniae ([1]; Gram-negative, 24 h at 37 °C) [mg/L]	MIC S. faecalis ([4]; Gram-positive, 24 h at 37 °C) [mg/L]	MIC C. freundii ([5]; Gram-negative, 24 h at 37 °C) [mg/L]	MIC S. epidermidis ([6]; Gram-positive, 24 h at 37 °C) [mg/L]	IC50 [7, 17] [µM]	IC50 [8, 18] [µM]	IC50 [9, 19] [µM]	other results
N#C[Se]C/C=C/c1ccccc1 [Compound 1a, (E)-(3-selenocyanatoprop-1-en-1-yl)benzene]	no bactericidal effect was observed																			MIC ([1]; 24 h): 100 mg/L (≈ 450 µM); MBC [1]: 100 mg/L (≈ 450 µM); IC50 ([2]; Homo sapiens, HT-29, 48 h, read-out: IC50 HT-29, MTT assay, 48 h, mean ± SD): > 50 µM; IC50 ([2]; read-out: IC50 HT-29, MTT assay, 48 h, mean ± SD): 61.2 ± 9.7 µM; IC50 ([3]; Homo sapiens, NCI-H1299, 48 h, read-out: IC50 H1299, MTT assay, 48 h, mean ± SD): > 50 µM; IC50 ([3]; read-out: IC50 H1299, MTT assay, 48 h, mean ± SD): 82.5 ± 5.9 µM; MIC ([4]; 24 h): 50 mg/L (≈ 225 µM); MBC [4]: > 200 mg/L; MIC ([5]; 24 h): 100 mg/L (≈ 450 µM); MBC [5]: 100 mg/L (≈ 450 µM); MIC ([6]; 24 h): 12.5 mg/L (≈ 56.3 µM); MBC [6]: 12.5 mg/L (≈ 56.3 µM); IC50 ([7]; Homo sapiens, MCF7, 48 h, read-out: IC50 MCF-7, MTT assay, 48 h, mean ± SD): > 50 µM; IC50 ([7]; read-out: IC50 MCF-7, MTT assay, 48 h, mean ± SD): 55 ± 2.3 µM; IC50 ([8]; Leishmania infantum, read-out: IC50 Leishmania infantum, promastigotes, MTT assay, 48 h, mean ± SD): < 5 µM; IC50 ([8]; read-out: IC50 Leishmania infantum, promastigotes, MTT assay, mean ± SD): 3.3 ± 1.8 µM; IC50 ([9]; Homo sapiens, HTB-54, 48 h, read-out: IC50 HTB-54, MTT assay, 48 h, mean ± SD): > 50 µM; IC50 ([9]; read-out: IC50 HTB-54, MTT assay, 48 h, mean ± SD): 58.7 ± 9 µM
C(=C\c1ccccc1)/C[Se][Se]C/C=C/c1ccccc1 [Compound 1b, 1,2-Dicinnamyldiselenide]		> 200	< 40	36 ± 5.4	< 40	28.7 ± 2.6	> 200	> 200	> 200	> 100	39.4 ± 5.1	50.1 ± 5.9								
O=C(CC[Se]CC=Cc1ccccc1)[c-]1cccc1.[Fe+2].c1cc[cH-]c1 [Compound 1c, 3-(Cinnamylselanyl)-1-ferrocenylpropan-1-one]				> 100		70.6 ± 6.6							>200	>200	>200	>200	18.5 ± 5.4	23.2 ± 10.7	32.3 ± 3.2	
N#C[Se]Cc1ccc2c(c1)OCO2 [Compound 2a, 5-(Selenocyanatomethyl)benzo[d][1,3]dioxole]	no bactericidal effect was observed	50 (≈ 208 µM)	< 12	11.9 ± 3.4	< 12	11.9 ± 3.7	25 (≈ 104 µM)	100 (≈ 416 µM)	12.5 (≈ 52.1 µM)	59.3 ± 6.5	< 5	45.2 ± 8.2		≤ 25		≤ 25		3.7 ± 0.1		MBC ([1]; Gram-negative): 50 mg/L (≈ 208 µM); MBC ([4]; Gram-positive): > 200 mg/L; MBC ([5]; Gram-negative): 100 mg/L (≈ 416 µM); MBC ([6]; Gram-positive): 12.5 mg/L (≈ 52.1 µM)
O=C(CC[Se]Cc1ccc2c(c1)OCO2)[c-]1cccc1.[Fe+2].c1cc[cH-]c1 [Compound 2c, 3-((Benzo[d][1,3]dioxol-5-ylmethyl)selanyl)-1-ferrocenylpropan-1-one]				21.4 ± 4.3		45.2 ± 7.2							>200	>200	>200	>200	14.8 ± 4.3	7.2 ± 3.6	29.7 ± 2.9	
